In PMC6753678, “Fueling Open Innovation for Malaria Transmission-Blocking Drugs: Hundreds of Molecules Targeting Early Parasite Mosquito Stages” (Frontiers in Microbiology, 2019):
Like-named read-outs stand apart in the source and are kept apart here.

Key:
[1] = system: HepG2 cells; test: HepG2 cytotoxicity assay; conditions: for Pb ODA (this manuscript) HepG2 cytoxicity: HepG2 cytotoxicity listed with the Pb ODA data set (this manuscript); for IC50: read-out: HepG2 cytotoxicity assay IC50, dose response confirmation
Procedure, shortened: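 Percent inhibition derived from fluorescent viability readout, normalised to DMSO (negative) and 50 μM doxorubicin (positive). Compound incubation lasted 48 h at 37°C, 5% CO2, with 2,500 HepG2 cells/well in MEM plus 10% FBS and 1% NEAA.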

[2] = system: 3D7-strain P. falciparum asexual parasites; test: P. falciparum asexual growth inhibition assay (Pf GIA); assay type: cell-based, Plasmodium falciparum; conditions: dose response confirmation; read-out: Pf asexual growth inhibition assays IC50
Procedure, shortened: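 3D7 parasites at 0.25% parasitemia, 2% hematocrit were exposed to compounds in dose response for 72 h at 37°C under 5% CO2, 5% O2. Viability read as parasite LDH activity (nitro blue tetrazolium, A650) after freeze-thaw; inhibition scaled to chloroquine (50 μM) and DMSO controls, mean of three biological replicates.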

[3] = system: P. berghei ookinete development; conditions: for % inhibition, Replicate A / % inhibition, Replicate B: primary screen at 1 μM
[4] = read-out: Pb ODA (this manuscript) IC50, P. berghei ookinete development assay, this manuscript
[5] = read-out: Pb Ookinete development assay IC50, dose response confirmation
[6] = unified HepG2 value across the three screens
[7] = read-out: Pb ODA IC50, this manuscript
[8] = HepG2 values of the three screens unified

Row | Compound | Pb ODA (this manuscript) HepG2 cytoxicity [1] | IC50 [1] | IC50 [2] | Is compound selective in assay? Pb ODA active? [3] | % inhibition, Replicate A [3] | % inhibition, Replicate B [3] | IC50 [3, 4] | IC50 [3, 5] | Unified cytotox [1, 6] | Is compound selective in assay? Pb ODA active? ([3]; 1: YES, 0: NO) | IC50 [3, 7] | Unified cytotox [1, 8] | HepG2 cytoxicity (Pb ODA, this manuscript) [1]
1 | COc1nc2c(CCN3CCC(NCc4ccc5c(c4)NCCO5)CC3)c(Cl)cnc2cc1F.Cl [TCMDC-135768] | 14.45 µM | 14.5 µM | 584 nM | 0 (key: 1: YES; 0: NO) | 14.93% | 54.54% | 3540 nM | 3540 nM | – | – | – | – | –
2 | Cc1noc(C)c1-c1ccc2c(Nc3ccc(C(F)(F)F)cc3)c(C(N)=O)cnc2c1.Cl [TCMDC-136019] | 48.98 µM | 49 µM | 365 nM | 0 (key: 1: YES; 0: NO) | 61.84% | 39.20% | 5460 nM | 5460 nM | – | – | – | – | –
3 | CC[C@@]1(O)C(=O)OCc2c1cc1n(c2=O)Cc2c-1nc1cc3c(cc1c2CN1CCN(C)CC1)OCCO3.Cl [TCMDC-131875] | – | 1.26 µM | 204 nM | – | 61.11% | 69.44% | – | 2370 nM | 1.26 µM | 0 (0: NO) | 2370 nM | – | –
4 | Cc1[nH]c(C)c(-c2ccc(-c3cccc(C(F)(F)F)c3)nc2)c(=O)c1Br [TCMDC-135911] | – | 100 µM | 45 nM | – | 105.47% | 112.19% | – | 400 nM | – | 1 (1: YES) | – | 100.00 µM | –
5 | Cc1cc(C(=O)NC2CCN(CC3(c4ccccc4)CCCCC3)CC2)on1 [TCMDC-124832] | – | 13.5 µM | < 0.2 nM | – | 102.69% | 91.64% | – | 613 nM | 13.49 µM | 1 (1: YES) | 610 nM | – | –
6 | Cc1[nH]c(C)c(-c2ccc(-c3ccc(F)cc3)nc2)c(=O)c1Br [TCMDC-135925] | – | 33.1 µM | 319 nM | – | 61.34% | 86.73% | – | 542 nM | – | 1 (1: YES) | 540 nM | 33.11 µM | 33.11 µM
7 | COc1ccc2nccc(N3CCC(CCNCc4ccc5c(n4)NC(=O)CS5)CC3)c2n1.Cl [TCMDC-141944] | – | 14.8 µM | 160 nM | – | 58.34% | 37.24% | – | 8880 nM | – | 0 (0: NO) | 8880 nM | 14.79 µM | 14.79 µM
8 | COc1ccc(C23Oc4cc(OC)cc(OC)c4C2(O)C2(CC3c3ccccc3)SCCCS2)cc1 (stereo not shown) [TCMDC-132098] | – | 100 µM | 712 nM | – | 104.91% | 114.13% | – | 401 nM | 100.00 µM | 1 (1: YES) | 400 nM | – | –
9 | COc1ccc2nccc([C@@H](O)CN3CCC(NC(=O)/C=C/c4c[nH]c5c(C)cccc45)CC3)c2c1 [TCMDC-141000] | – | 51.3 µM | 433 nM | – | 72.27% | 60.86% | – | 1900 nM | – | 1 (1: YES) | 1900 nM | 51.29 µM | 51.29 µM
10 | Br.CC(CON1C(N)=NC(N)=NC1(C)C)c1ccc(Cl)cc1Cl (stereo not shown) [TCMDC-131687] | – | 0.001 µM | 39 nM | – | 63.61% | 60.22% | – | 2100 nM | – | 0 (0: NO) | 2100 nM | 0.001 µM | 0.001 µM
11 | CCCOc1cc(OCCC)cc(-c2cc(=O)c3ccccc3[nH]2)c1 [TCMDC-138943] | – | 100 µM | 76 nM | – | 86.05% | 83.39% | – | 547 nM | 100.00 µM | 1 (1: YES) | 550 nM | – | –
12 | C=C[C@H]1CN(CCCCCCC)CC[C@H]1CC(=O)Nc1cnnc2ccc(OC)cc12.O=C(O)C(=O)O [TCMDC-139791] | – | 33.9 µM | 276 nM | – | 17.33% | 54.49% | – | 2770 nM | 33.88 µM | 1 (1: YES) | 2770 nM | – | –
13 | Cc1cccc2nc(-c3ccc(-c4ccc(CN5CCOCC5)cc4)cc3)[nH]c12.O=C(O)C(F)(F)F [TCMDC-133825] | 27.54 µM | 27.5 µM | 2230 nM | 1 (key: 1: YES; 0: NO) | 75.48% | 125.42% | 630 nM | 635 nM | – | – | – | – | –
14 | O=C(c1ccco1)N1CCN(c2ccc([N+](=O)[O-])c(NC3CC3)c2)CC1 [TCMDC-125397] | – | 2.04 µM | < 0.2 nM | – | 106.00% | 90.44% | – | 1160 nM | 2.04 µM | 0 (0: NO) | 1160 nM | – | –
15 | N#Cc1cc([N+](=O)[O-])ccc1-n1nc(C(N)=O)n(Cc2cccc(F)c2)c1=S [TCMDC-134721] | – | 34.7 µM | 650 nM | – | 66.73% | 70.30% | – | 1120 nM | 34.67 µM | 1 (1: YES) | 1120 nM | – | –
16 | Cc1[nH]c(C)c([N+](=O)[O-])c(=O)c1-c1ccc(Oc2ccccc2)cc1 [TCMDC-135779] | 100.00 µM | 100 µM | 809 nM | 1 (key: 1: YES; 0: NO) | 85.12% | 87.09% | – | 540 nM | – | – | – | – | –
17 | Nc1nc(N)c2c(ccc3c2ccn3CCCCO)n1 [TCMDC-137959] | – | 0.0759 µM | 61 nM | – | 70.70% | 40.44% | – | 3090 nM | – | 0 (0: NO) | 3090 nM | 0.0759 µM | 0.0759 µM
18 | O=c1c2c([nH]c3cc(Cl)ccc13)CCCC2 [TCMDC-123504] | 100.00 µM | 100 µM | 824 nM | 1 (key: 1: YES; 0: NO) | 114.67% | 120.99% | 1240 nM | 1240 nM | – | – | – | – | –
19 | COc1cc(F)c2ncc(Cl)c(CCN3CCC(NCc4ccc5c(c4)NC(=O)CO5)CC3)c2c1.Cl [TCMDC-135623] | 12.30 µM | 12.3 µM | 339 nM | 1 (key: 1: YES; 0: NO) | 70.96% | 86.73% | 540 nM | 541 nM | – | – | – | – | –
20 | Cc1cc(=O)c(-c2ccc(Oc3cccc(Cl)c3)cc2)c(C)[nH]1 [TCMDC-137265] | – | 3.72 µM | 1850 nM | – | 110.80% | 102.47% | – | 1280 nM | – | 0 (0: NO) | 1280 nM | 3.72 µM | 3.72 µM
21 | O=C(NCC1CCCCC1)c1cc(=O)c2ccccc2o1 [TCMDC-123621] | – | 100 µM | 563 nM | – | 49.08% | 59.87% | – | 1040 nM | 100.00 µM | 1 (1: YES) | – | – | –
22 | O=C(O)C(F)(F)F.O=c1[nH]ccc2nc(N[C@@H]3CCCNC3)nc(Nc3ccc(S(=O)(=O)N4CCOCC4)cc3)c12 [TCMDC-135038] | – | 45.7 µM | 347 nM | – | 53.41% | 58.16% | – | 1540 nM | 45.71 µM | 1 (1: YES) | 1550 nM | – | –
23 | O=C(Nc1ccc(N2CCCN(Cc3cccc(F)c3)CC2)cc1)c1cccs1.O=C(O)C(F)(F)F [TCMDC-135012] | 78.52 µM | 78.5 µM | 650 nM | 1 (key: 1: YES; 0: NO) | 50.47% | 51.73% | 1900 nM | 1900 nM | – | – | – | – | –
24 | Cc1[nH]c(C)c(-c2ccc(OCc3ccc(OC(F)(F)F)cc3)nc2)c(=O)c1Br [TCMDC-135254] | – | 87.1 µM | 122 nM | – | 57.86% | 80.15% | – | 1680 nM | – | 1 (1: YES) | 1680 nM | 87.10 µM | 87.10 µM
